Data set [1] deals with ectromelia.
Data set [2] can be described thus: Study HDP-CDV-112: mass balance and metabolite profiling of 14C-radiolabeled HDP-CDV. Particulars: for metabolite AUC as share of total HDP-CDV-derived radioactivity AUC: plasma, through 24 h postdose. Here is the method: The criteria for stopping urine and stool collection were assessed independently of each other.
In data set [3] the test system is AdV. Put plainly: In vitro antiviral activity in cell culture, AdV. Particulars: unidentified adenovirus. The format is cell-based.
Data set [4] can be described thus: clinical. Particulars: human, in vivo. The procedure:
The pharmacokinetics of HDP-CDV (oral solution) were investigated in a dose-escalation study in healthy volunteers (Study HDP-CDV-102) in which single doses of up to 2 mg/kg and multiple doses (3 doses, each separated by 6 days) of up to 1 mg/kg were administered.

For data set [5], the system named is HHV-6(B). As to the kind of experiment: In vitro antiviral activity in cell culture, HHV-6(B). It counts as cell-based, human herpesvirus 6. The settings on record: Human betaherpesvirus 6, B-cell.

Take `Nc1ccn(C[C@@H](CO)OCP(=O)(O)OCCCOCCCC(=O)O)c(=O)n1` [CMX064, 4-(3-propoxy)butanoic acid ester of CDV]: the “in vitro pharmacological activity and cytotoxicity compared to HDP-CDV” value in data set [1] is “lower pharmacologic and cytotoxic activity”. Also, the “percent dose excreted in urine” value in data set [2] (drug-derived metabolites) amounted to 10%. For the same compound, the “metabolite AUC as share of total HDP-CDV-derived radioactivity AUC” value in data set [2] is about 23%.

Consider `Nc1ccn(CC(CO)OCP(=O)(O)OCCCO)c(=O)n1` (stereo not drawn) [CMX103, 3-hydroxypropyl ester of CDV], for which the “in vitro pharmacological activity and cytotoxicity compared to HDP-CDV” value in data set [1] is “lower pharmacologic and cytotoxic activity”. In data set [2] (drug-derived metabolites), the “percent dose excreted in feces” value is 6% and the “percent dose excreted in urine” value turned out to be 21%. The “metabolite AUC as share of total HDP-CDV-derived radioactivity AUC” value in data set [2] is reported as “approximately 32%”.

For the compound `Nc1ccn(C[C@@H](CO)OCP(=O)(O)O)c(=O)n1` [Cidofovir, cidofovir, reference compound], the “in vitro pharmacological activity and cytotoxicity compared to HDP-CDV” value in data set [1] is “lower pharmacologic and cytotoxic activity”. This compound also yielded a concentration giving a half-maximal response (EC50) in data set [3] of 1.3 µM. In data set [4], the “Cmax and AUC versus dose” value is given as “increased approximately in proportion to dose”; the “accumulation on Day 12” value is listed as “negligible accumulation”. In addition, the “time of Cmax after administration” value in data set [4] (po) is 9 to 15 h. In data set [5], this compound came in with an EC50 of 5.4 µM.

Take `Nc1nc(O)c2ncn(COC(CO)CO)c2n1` [Ganciclovir, ganciclovir]: the EC50 in data set [3] was 4.5 to 33 µM; in data set [5], 5.9 µM.

For the origin of these results see US20140303092A1 (CHIMERIX, INC., priority 2011, published 2014).
